# Earlier results, collected in patent publication US20040096492A1, “Cicatrizant hydrocolloidal patch containing hyaluronic acid and chondroitin sulphate” (priority 2001, published 2004).
# System: full thickness (300 mm^2) cutaneous wound
# Conditions: rats
substance,measurement,setting,value
sodium chondroitin sulphate,residual area in the treated group relative to the control group,8 days after the second application of 30 mg,half
same,reduction of the damaged surface (planimetry),"one or two applications of 30 mg, vs control",more rapid
same,clinical signs connected with the lesion (edema-exudate),vs control,decreased more quickly
